Activity data for six molecules are collected here from ChEMBL document CHEMBL3044547, “2-Substituted-8-methyl-3,6-dihydroimidazo[4,5-c]pyrazolo[3,4-e]pyridazine as an anti-inflammatory agent” (2011).

SMILES strings stand for the structures.

Type in all cases: functional
In test [1] the test system is Rattus norvegicus. The test can be described thus: Anti-inflammatory activity in Rattus norvegicus albino (rat) assessed as carageenaan-induced paw edema at 100 mg/kg, po administered 1 hr prior to carageenaan-challenge measured at 180 min relative to control (reference value: 22.3%).
For test [2], the system named is Rattus norvegicus. The test can be described thus: Anti-inflammatory activity in Rattus norvegicus albino (rat) assessed as carageenaan-induced paw edema at 100 mg/kg, po administered 1 hr prior to carageenaan-challenge measured at 90 min relative to control (reference value: 38.7%).
Test [3] concerns Rattus norvegicus. In words: Anti-inflammatory activity in Rattus norvegicus albino (rat) assessed as carageenaan-induced paw edema at 100 mg/kg, po administered 1 hr prior to carageenaan-challenge measured at 30 min relative to control (reference value: 30.1%).
Test [4] has as its system Rattus norvegicus. In words: Anti-inflammatory activity against carageenaan-induced paw edema in Rattus norvegicus albino (rat) at 100 mg/kg, po administered 1 hr prior to carageenaan-challenge measured up to 3 hr.
Test [5] concerns Rattus norvegicus. In words: Anti-inflammatory activity in Rattus norvegicus albino (rat) assessed as carageenaan-induced paw edema at 100 mg/kg, po administered 1 hr prior to carageenaan-challenge measured at 120 min (reference value: 100%).
The test system of test [6] is Rattus norvegicus. In words: Anti-inflammatory activity in Rattus norvegicus albino (rat) assessed as carageenaan-induced paw edema at 100 mg/kg, po administered 1 hr prior to carageenaan-challenge measured at 90 min (reference value: 100%).
Test [7] relates to Rattus norvegicus. The test can be described thus: Anti-inflammatory activity in Rattus norvegicus albino (rat) assessed as carageenaan-induced paw edema at 100 mg/kg, po administered 1 hr prior to carageenaan-challenge measured at 30 min (reference value: 100%).

Consider `Cc1n[nH]c2nnc3nc(CCC(=O)O)[nH]c3c12`, for which the Activity came to 21.4% in the test with Rattus norvegicus [1], 18.4% in the test on Rattus norvegicus [2], 6.5% in the test on Rattus norvegicus [3] and 33% in the test with Rattus norvegicus [4].

In the case of `Cc1n[nH]c2nnc3nc(/C=C\c4ccccc4)[nH]c3c12`, the Activity with Rattus norvegicus [1] amounted to 0.4%; in the test on Rattus norvegicus [2], 6.2%; in the test on Rattus norvegicus [3], 3.9%; in the test with Rattus norvegicus [4], 35%.

Consider `Cc1n[nH]c2nnc3nc(CCCCC(=O)O)[nH]c3c12`, for which the Activity with Rattus norvegicus [1] is given as 33.6%; with Rattus norvegicus [2], 46.5%; in the test on Rattus norvegicus [3], 33.9%; in the test with Rattus norvegicus [4], 31%.

As for `CC(C)Cc1ccc(C(C)C(=O)O)cc1` (centres undefined) [IBUPROFEN], the Activity was 49% with Rattus norvegicus [4], 11.6% with Rattus norvegicus [5], 108% in the test on Rattus norvegicus [6] and 101% in the test on Rattus norvegicus [7].

With `Cc1n[nH]c2nnc3nc(-c4ccccc4)[nH]c3c12`, the Activity in the test with Rattus norvegicus [1] came to 14.9%; with Rattus norvegicus [2] it was 23.4%; with Rattus norvegicus [3] it was 14.1%; in the test with Rattus norvegicus [4] it was 30%.

Consider `Cc1n[nH]c2nnc3nc(-c4ccccc4C(=O)O)[nH]c3c12`, for which the Activity in the test on Rattus norvegicus [1] is on record as 20.6%; in the test with Rattus norvegicus [2] it was 23.3%; in the test on Rattus norvegicus [3] it was 15.1%; in the test on Rattus norvegicus [4], 41%.
